For 29 compounds, EC1.5 and Emax results are on record in patent US20110039847A1, “AMIDE DERIVATIVES AS SIRTUIN MODULATORS” (Sirtris Pharmaceuticals, Inc, priority 2007, published 2011).

The target in this test is T1, SIRT1 (Homo sapiens, UniProt Q96EB6).
T1 sequence (Q96EB6 1-747): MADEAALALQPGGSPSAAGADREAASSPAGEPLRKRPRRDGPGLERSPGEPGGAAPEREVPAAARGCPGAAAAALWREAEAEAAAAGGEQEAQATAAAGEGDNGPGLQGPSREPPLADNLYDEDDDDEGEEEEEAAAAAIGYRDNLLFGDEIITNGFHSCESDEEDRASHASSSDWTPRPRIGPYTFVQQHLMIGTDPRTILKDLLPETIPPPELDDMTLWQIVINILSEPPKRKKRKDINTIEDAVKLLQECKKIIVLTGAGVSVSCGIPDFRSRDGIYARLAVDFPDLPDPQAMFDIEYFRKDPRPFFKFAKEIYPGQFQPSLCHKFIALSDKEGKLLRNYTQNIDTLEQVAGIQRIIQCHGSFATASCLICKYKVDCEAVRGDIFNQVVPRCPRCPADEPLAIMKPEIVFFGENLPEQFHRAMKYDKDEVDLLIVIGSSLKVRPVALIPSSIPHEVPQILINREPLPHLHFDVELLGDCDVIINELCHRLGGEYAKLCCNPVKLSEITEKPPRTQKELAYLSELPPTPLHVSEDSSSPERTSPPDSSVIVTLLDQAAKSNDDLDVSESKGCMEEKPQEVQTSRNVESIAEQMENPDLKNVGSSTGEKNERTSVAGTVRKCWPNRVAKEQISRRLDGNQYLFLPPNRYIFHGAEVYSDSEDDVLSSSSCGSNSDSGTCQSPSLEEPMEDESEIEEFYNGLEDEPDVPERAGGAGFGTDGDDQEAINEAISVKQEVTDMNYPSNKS
The test is described as follows: Mass spectrometry based SIRT1 deacetylation (activation) assay. The following applies: 0.5 μM peptide substrate, 120 μM βNAD+, 10 nM SIRT1, 25 min at 25° C.; for Emax: 25 min, read-out: % Fold Act. (percent maximum fold activation). The format is biochemical. The source says:
A mass spectrometry based assay was used to identify modulators of SIRT1 activity. The mass spectrometry based assay utilizes a peptide having 20 amino acid residues as follows: Ac-EE-K(biotin)-GQSTSSHSK(Ac)NleSTEG-K(5TMR)-EE-NH2 (SEQ ID NO: 1) wherein K(Ac) is an acetylated lysine residue and Nle is a norleucine. The peptide is labeled with the fluorophore 5TMR (excitation 540 nm/emission 580 nm) at the C-terminus. The sequence of the peptide substrate is based on p53 with several modifications. In addition, the methionine residue naturally present in the sequence was replaced with the norleucine because the methionine may be susceptible to oxidation during synthesis and purification.
The mass spectrometry assay is conducted as follows: 0.5 μM peptide substrate and 120 μM βNAD^+ is incubated with 10 nM SIRT1 for 25 minutes at 25° C. in a reaction buffer (50 mM Tris-acetate pH 8, 137 mM NaCl, 2.7 mM KCl, 1 mM MgCl2, 5 mM DTT, 0.05% BSA). Test compounds may be added to the reaction as described above. […] After the 25 minute incubation with SIRT1, 10 μL of 10% formic acid is added to stop the reaction. Reactions are sealed and frozen for later mass spec analysis. Determination of the mass of the substrate peptide allows for precise determination of the degree of acetylation (i.e. starting material) as compared to deacetylated peptide (product).
A control for inhibition of sirtuin activity is conducted by adding 1 μL of 500 mM nicotinamide as a negative control at the start of the reaction (e.g., permits determination of maximum sirtuin inhibition). A control for activation of sirtuin activity is conducted using 10 nM of sirtuin protein, with 1 μL of DMSO in place of compound, to determine the amount of deacetylation of the substrate at a given timepoint within the linear range of the assay. This timepoint is the same as that used for test compounds and, within the linear range, the endpoint represents a change in velocity.
For the above assay, SIRT1 protein was expressed and purified as follows. […] The protein was expressed by induction with 1 mM IPTG as an N-terminal His-tag fusion protein at 18° C. overnight and harvested at 30,000×g. Cells were lysed with lysozyme in lysis buffer (50 mM Tris-HCl, 2 mM Tris[2-carboxyethyl]phosphine (TCEP), 10 μM ZnCl2, 200 mM NaCl) and further treated with sonication for 10 min for complete lysis. The protein was purified over a Ni-NTA column (Amersham) and fractions containing pure protein were pooled, concentrated and run over a sizing column (Sephadex S200 26/60 global). The peak containing soluble protein was collected and run on an Ion-exchange column (MonoQ). Gradient elution (200 mM-500 mM NaCl) yielded pure protein. This protein was concentrated and dialyzed against dialysis buffer (20 mM Tris-HCl, 2 mM TCEP) overnight. The protein was aliquoted and frozen at −80° C. until further use.

For `CN(C)CCNc1cc(C(=O)Nc2ccccc2-c2ncc(C(C)(C)C)o2)nc(-c2ccccc2)c1` [Compound 31], the EC1.5 entry is “B (EC1.5>1 and ≦10 uM)”; the Emax is at least 300%.

In the case of `CCN(CCN(C)C)c1cc(C(=O)Nc2ccccc2C(=O)NC2CCC2)nc(-c2ccccc2)n1` [Compound 164, N-(2-(cyclobutylcarbamoyl)phenyl)-6-((2-(dimethylamino)ethyl)(ethyl)amino)-2-phenylpyrimidine-4-carboxamide], the EC1.5 entry is given as “A (EC1.5≦1 uM)” and the Emax was at least 300%.

Turning to `Cc1nnc(-c2ccccc2NC(=O)c2cc(NCCN(C)C)nc(-c3ccccc3)n2)s1` [Compound 21], the EC1.5 entry is on record as “A (EC1.5≦1 uM)” and the Emax lay within 150 to 300%.

In the case of `CCN(CCN(C)C)c1cc(C(=O)Nc2ccccc2C(=O)NC2CCCC2)nc(-c2ccccc2)n1` [Compound 169, N-(2-(cyclopentylcarbamoyl)phenyl)-6-((2-(dimethylamino)ethyl)(ethyl)amino)-2-phenylpyrimidine-4-carboxamide], the EC1.5 result was “B (EC1.5>1 and ≦10 uM)”; the Emax was at least 300%.

As to `O=C(Nc1ccccc1C(=O)c1nccs1)c1cc(N2CCOCC2)nc(-c2ccccc2)n1` [Compound 176], the EC1.5 result is given as “A (EC1.5≦1 uM)” and the Emax was in the range of 150 to 300%.

As to `CC(C)c1nnc(-c2ccccc2NC(=O)c2cc(NCCN(C)C)nc(-c3ccccc3)n2)s1` [Compound 72], the EC1.5 result is “A (EC1.5≦1 uM)” and the Emax is at least 300%.

Turning to `CN(C)CCNc1cc(C(=O)Nc2ccccc2-c2nnc(C3CCCC3)s2)nc(-c2ccccc2)n1` [Compound 49], the EC1.5 entry is “B (EC1.5>1 and ≦10 uM)”; the Emax lay in the range of 150 to 300%.

With `CCN(CCN(C)C)c1cc(C(=O)Nc2ccccc2-c2nnc(N3CCOCC3)s2)nc(-c2ccccc2)n1` [Compound 105], the EC1.5 entry is reported as “A (EC1.5≦1 uM)” and the Emax was at least 300%.

On to `CCN(CCN(C)C)c1cc(C(=O)Nc2ccccc2Br)nc(-c2ccccc2)n1` [Compound 159], for which the EC1.5 entry was “B (EC1.5>1 and ≦10 uM)”; the Emax is 150 to 300%.

`CCN(CCN(C)C)c1cc(C(=O)Nc2ccccc2C(=O)Nc2ccccc2C(N)=O)nc(-c2ccccc2)n1` [Compound 160, N-(2-(2-carbamoylphenylcarbamoyl)phenyl)-6-((2-(dimethylamino)ethyl)(ethyl)amino)-2-phenylpyrimidine-4-carboxamide]: the EC1.5 result is “A (EC1.5≦1 uM)” and the Emax is at least 300%.

As to `CNCCN(C)c1cc(C(=O)Nc2ccccc2-c2nnc(C3CCC3)s2)nc(-c2ccccc2)n1` [Compound 47], the EC1.5 result is given as “A (EC1.5≦1 uM)” and the Emax lay within 150 to 300%.

Take `CCN(CCN(C)C)c1cc(C(=O)Nc2ccccc2-c2nnc(C(C)C)s2)nc(-c2ccccc2)n1` [Compound 83]: the EC1.5 entry is recorded as “A (EC1.5≦1 uM)” and the Emax is at least 300%.

As to `CCCCc1nnc(-c2ccccc2NC(=O)c2cc(N(CC)CCN(C)C)nc(-c3ccccc3)n2)s1` [Compound 62], the EC1.5 result is on record as “A (EC1.5≦1 uM)” and the Emax is 150 to 300%.

Take `CN(C)CCNc1cc(C(=O)Nc2ccccc2-c2nnc(N3CCOCC3)s2)nc(-c2ccccc2)n1` [Compound 101]: the EC1.5 result was “A (EC1.5≦1 uM)” and the Emax was at least 300%.

Take `CCc1nnc(-c2ccccc2NC(=O)c2cc(N(CC)CCN(C)C)nc(-c3ccccc3)n2)s1` [Compound 55]: the EC1.5 result is recorded as “A (EC1.5≦1 uM)” and the Emax was in the range of 150 to 300%.

Regarding `CCN(CCN(C)C)c1cc(C(=O)Nc2ccccc2-c2ncc(C(C)(C)C)o2)nc(-c2ccccc2)n1` [Compound 65], the EC1.5 result was “B (EC1.5>1 and ≦10 uM)”; the Emax was in the range of 150 to 300%.

With `CN(C)CCNc1cc(C(=O)Nc2ccccc2)nc(-c2ccccc2)n1` [Compound 6], the EC1.5 result is “C (EC1.5>10 uM)” and the Emax fell in the range of 150 to 300%.

Regarding `CN(C)CCNc1cc(C(=O)Nc2ccccc2-c2ncc(-c3ccccc3)o2)nc(-c2ccccc2)n1` [Compound 38], the EC1.5 result was “A (EC1.5≦1 uM)” and the Emax was in the range of 150 to 300%.

Take `NC(=O)c1nnc(-c2ccccc2NC(=O)c2cc(N3CCNCC3)nc(-c3ccccc3)n2)s1` [Compound 67]: the EC1.5 result is “A (EC1.5≦1 uM)” and the Emax was 150 to 300%.

For the compound `CCN(CCN(C)C)c1cc(C(=O)Nc2ccccc2-c2ncc(C(C)(C)C)o2)nc(-c2ccccc2)c1` [Compound 43], the EC1.5 entry is given as “A (EC1.5≦1 uM)” and the Emax was at least 300%.

Consider `O=C(Nc1ccccc1-c1nnc(C(=O)N2CCOCC2)s1)c1cc(OC[C@@H](O)CO)nc(-c2ccccc2)n1` [Compound 91], for which the EC1.5 result is recorded as “A (EC1.5≦1 uM)” and the Emax was 150 to 300%.

As to `CCN(CCN(C)C)c1cc(C(=O)Nc2ccccc2-c2nnc(C(N)=O)s2)nc(-c2ccccc2)n1` [Compound 71], the EC1.5 result is “A (EC1.5≦1 uM)” and the Emax was 150 to 300%.

`CCN(CCN(C)C)c1cc(C(=O)Nc2ccccc2-c2cnc(-c3ccccc3)[nH]2)nc(-c2ccccc2)n1` [Compound 68]: the EC1.5 entry was “A (EC1.5≦1 uM)” and the Emax was at least 300%.

For the compound `CCN(CCN(C)C)c1cc(C(=O)Nc2ccccc2C(=O)NC2CCN(C(=O)OC(C)(C)C)C2)nc(-c2ccccc2)n1` (stereo not shown) [Compound 173, tert-butyl 3-(2-(6-((2-(dimethylamino)ethyl)(ethyl)amino)-2-phenylpyrimidine-4-carboxamido)benzamido)pyrrolidine-1-carboxylate], the EC1.5 result was “B (EC1.5>1 and ≦10 uM)”; the Emax is at least 300%.

With `CSCCNC(=O)c1ccccc1NC(=O)c1cc(NCCN(C)C)nc(-c2ccccc2)n1` [Compound 148, 6-(2-(dimethylamino)ethylamino)-N-(2-(2-(methylthio)ethylcarbamoyl)phenyl)-2-phenylpyrimidine-4-carboxamide], the EC1.5 entry was “B (EC1.5>1 and ≦10 uM)”; the Emax was at least 300%.

Regarding `CCN(CCN(C)C)c1cc(C(=O)Nc2ccccc2C(=O)c2nccs2)nc(-c2ccccc2)n1` [Compound 177], the EC1.5 entry is on record as “A (EC1.5≦1 uM)” and the Emax was at least 300%.

`O=C(Nc1ccccc1-c1nnc(C(=O)N2CCOCC2)s1)c1cc(NC(CO)CO)nc(-c2ccccc2)n1` [Compound 90]: the EC1.5 entry was “A (EC1.5≦1 uM)” and the Emax is at least 300%.

Consider `CCN(CCOC)c1cc(C(=O)Nc2ccccc2-c2ncc(C(C)(C)C)o2)nc(-c2ccccc2)c1` [Compound 85], for which the EC1.5 entry is on record as “A (EC1.5≦1 uM)” and the Emax is at least 300%.

On to `O=C(Nc1ccccc1-c1nnc(N2CCOCC2)s1)c1cc(N2CCOCC2)nc(-c2ccccc2)n1` [Compound 100], for which the EC1.5 result is “A (EC1.5≦1 uM)” and the Emax fell in the range of 150 to 300%.
